In patent US20220233624A9, “ANTI-CANCER AND ANTI-PROLIFERATIVE COMPOSITIONS, AND METHODS FOR THEIR USE IN TREATING CANCER” (Natreon, Inc., priority 2020, published 2022):
Where “and” joins values, the source holds several entries; their conditions need not be identical. Equal values may be shown once. Read-outs that look alike come from different tables or passages of the source. Marks after values point to notes of the source that are not given here.

Key:
[1] = test system: Breast Cancer PDCs, ER/PR+ Her2 equivocal (HR+); test: Anti-proliferation assay on breast cancer HR+ PDCs; type: cell-based, human; settings: drug alone @ 3 uM; for inhibition at 3 µM: Homo sapiens; for % Inhibition, single replicates: 3 µM
Experimental: (§1) The outermost rows/columns of the plates were filled with PBS (pH 7.4) to avoid an edge-effect and were considered as blanks. Standardized aqueous extracts identified in Table 2 were prepared in main stock solutions by dissolving 1 mg of extract in 1 ml PBS (phosphate-buffered saline, pH 7.4). […] The plate was incubated in a CO2 incubator for 0/N incubation for 24 hours. […] Once extracts were added to incubated cells and mixed gently, the plate was given a brief spin and incubated in the CO2 incubator for 72 hours. The plate was removed from the incubator and 10 ul of detection reagent (CellTiterGlo®; Promega Corporation, Wisconsin, USA) added to each well of the 384 well plate. […] The assay described above is a two-dimensional (2D) assay.

[2] = test system: TN breast cancer PDCs SB 30750; test: Anti-proliferation assay on TN breast cancer PDCs SB 30750; type: cell-based; settings: Homo sapiens, 3 uM, 72 h
Experimental: In this Example, AyuFlex®, Capros®, and Ayuric® were each applied to different PDCs than previous tests, TN breast cancer PDCs SB 30750, and tested via the anti-proliferation assay described above. […] Incubation times were 72 hours.

[3] = test system: colon cancer cells (cell line HT-29); test: Anti-proliferation assay on colon cancer cells; type: cell-based; settings: Homo sapiens
Experimental: (§2) Anti-proliferative and anti-cancer activity of extracts of this invention on non-small cell lung cancer cells and colon cancer cells were assessed generally as described in Example I and are discussed below. […] As noted throughout this application, the below data is intended to describe the present invention but not to be limiting.
(§3) Non-small cell lung cancer cells (cell line NCI-H-358) and colon cancer cells (cell line HT-29) were plated in a 384-well plate in amounts of about 1.25 k cells/well. […] Wells with untreated cells and with plain media were also included as controls. Plates passed quality control parameters.

[4] = test system: Breast Cancer PDCs, Triple negative (TN), SB 36344; test: Anti-proliferation assay on breast cancer TN PDCs; type: cell-based, human; settings: drug alone @ 3 uM; for inhibition at 3 µM: Homo sapiens; for % Inhibition, single replicates: 3 µM
Experimental: as §1

[5] = test system: Breast Cancer PDCs, ER/PR− Her2+ (Her2+); test: Anti-proliferation assay on breast cancer Her2+ PDCs; type: cell-based, human; settings: drug alone @ 3 uM; for inhibition at 3 µM: Homo sapiens; for % Inhibition, single replicates: 3 µM
Experimental: as §1

[6] = test system: TN Breast Cancer cell line MDAMB-231; test: Anti-proliferation assay on MDAMB-231 cells (72 h and 120 h); type: cell-based; settings: Homo sapiens, MDA-MB-231, 3 uM
Experimental: Also, AyuFlex®, Capros®, and Ayuric® were tested in the anti-proliferative assay discussed above in the TN Breast Cancer cell line MDAMB-231. AyuFlex®, Capros®, and Ayuric® were incubated for 72 hours and 120 hours. The dose-response efficacy of AyuFlex®, Capros®, and Ayuric® after a 72-hour period of incubation was similar to that observed after a 120-hour period of incubation with the MDAMB-231 cells. Without being bound by theory, possibly this was due to saturation of cell growth at the 120-hour time-point.

[7] = test system: colon cancer cells (cell line HT-29); settings: J. Surg. Res. 111(1):63-69 (2003); read-out: IC50 (published); cited from earlier work
[8] = test system: Non-small cell lung cancer cells (cell line NCI-H-358); test: Anti-proliferation assay on non-small cell lung cancer cells; type: cell-based; settings: Homo sapiens, NCI-H358
Experimental: as §2, §3

[9] = test system: SHP-77 (small cell lung cancer) cells; test: Anti-proliferation assay on small cell lung cancer cells; type: cell-based; settings: Homo sapiens, SHP77
Experimental: SHP-77 (small cell lung cancer) cells were incubated for 72 hours with 100 ug/ml, 30 ug/ml, and 10 ug/ml each of AyuFlex®, Capros® Phyto-BGS®, PrimaVie®, Sensoril®, Ayuric®, and Crominex®, and tested according to the anti-proliferative assay described above. Cells were plated at 1.25 k/well in 384 well plates. Standard of care drug docetaxel was also tested at a 10 uM concentration as a control. Anti-proliferative assays were generally performed as discussed above, in triplicate, with detection reagent CellTiterGlo® as discussed for instance in Example I. Tables 77-79 show data for controls and that the data passed quality control parameters.

[10] = test system: Ovarian cancer (OVCAR-3) cells; test: Anti-proliferation assay on ovarian cancer cells; type: cell-based; settings: Homo sapiens
Experimental: (§4) Cells were plated at 1.25 k/well in 384 well plates. […] Anti-proliferative assays were generally performed as discussed in Example I above, in triplicate, with detection reagent CellTiterGlo. Tables 80-82 show data for controls for assays on prostate cancer (PC-3 cells), and that the data passed quality control parameters. Tables 83-85 show data for controls for assays on ovarian cancer (OVCAR-3 cells), and that the data passed quality control parameters.

[11] = test system: Non-small cell lung cancer cells (cell line NCI-H-358); settings: Intl. J. Oncol. 31:241-252 (2007); read-out: IC50 (published); cited from earlier work
[12] = test system: Prostate cancer (PC-3) cells; test: Anti-proliferation assay on prostate cancer cells; type: cell-based; settings: Homo sapiens
Experimental: as §4

[13] = drug 10 uM, read-out: inhibition of proliferation
[14] = plate control @ 10 uM, read-out: % Inhibition Average (SD)
[15] = plate control @ 10 uM, read-out: % Inhibition n1
[16] = plate control @ 10 uM, read-out: % Inhibition n2
[17] = plate control @ 10 uM, read-out: % Inhibition n3
[18] = read-out: % Inhibition, single replicates
[19] = 72 hour incubation, read-out: % Inhibition Avg
[20] = 72 hour incubation, read-out: % Inhibition n1
[21] = 72 hour incubation, read-out: % Inhibition n2
[22] = 72 hour incubation, read-out: % Inhibition n3
[23] = 120 hour incubation, read-out: % Inhibition Avg
[24] = 120 hour incubation, read-out: % Inhibition n1
[25] = 120 hour incubation, read-out: % Inhibition n2
[26] = 120 hour incubation, read-out: % Inhibition n3
[27] = 10 uM, 72 h, read-out: % Inhibition Average (SD)
[28] = 10 uM, 72 h, read-out: % Inhibition n1
[29] = 10 uM, 72 h, read-out: % Inhibition n2
[30] = 10 uM, 72 h, read-out: % Inhibition n3
[31] = drug 10 uM, read-out: inhibition

Q: With O=c1[nH]cc(F)c(=O)[nH]1 [5-FU, 5-fluorouracil] as the compound, how does the inhibition at 3 µM ([1]; read-out: % Inhibition Avg) read?
A: ~28%

Q: And the “% Inhibition Avg” value [1]?
A: 29%

Q: And the “% Inhibition, single replicates” value [1]?
A: 42% and 20% and 23%

Q: What about the inhibition at 3 µM ([2]; read-out: % Inhibition Avg) of the same compound?
A: 24%

Q: And the inhibition at 3 µM ([2]; read-out: % Inhibition n1)?
A: 44%

Q: What about the inhibition at 3 µM ([2]; read-out: % Inhibition n2) of the same compound?
A: 14%

Q: What about the inhibition at 3 µM ([2]; read-out: % Inhibition n3) of the same compound?
A: 14%

Q: What about the inhibition at 10 µM [3, 13] of the same compound?
A: 12%

Q: And the inhibition at 10 µM [3, 14]?
A: 12%

Q: And the inhibition at 10 µM [3, 15]?
A: 20%

Q: And the inhibition at 10 µM [3, 16]?
A: 7%

Q: And the inhibition at 10 µM [3, 17]?
A: 10%

Q: What about the inhibition at 3 µM ([4]; read-out: % Inhibition Avg) of the same compound?
A: 38%

Q: And the inhibition at 3 µM [4, 18]?
A: 48%

Q: What about the “% Inhibition, single replicates” value [4] of the same compound?
A: 33%

Q: What about the inhibition at 3 µM [5] of the same compound?
A: 18%

Q: And the “% Inhibition, single replicates” value [5]?
A: 41* % and 16% and 19%

Q: What about the inhibition at 3 µM [6, 19] of the same compound?
A: 4%

Q: And the inhibition at 3 µM [6, 20]?
A: 21%

Q: What about the inhibition at 3 µM [6, 21] of the same compound?
A: -5%

Q: And the inhibition at 3 µM [6, 22]?
A: -4%

Q: And the inhibition at 3 µM [6, 23]?
A: -8%

Q: And the inhibition at 3 µM [6, 24]?
A: 20%

Q: And the inhibition at 3 µM [6, 25]?
A: -10%

Q: What about the inhibition at 3 µM [6, 26] of the same compound?
A: -5%

Q: What about the IC50 [7] of the same compound?
A: 13 µM

Q: For CC(=O)O[C@@]12CO[C@@H]1C[C@H](O)[C@@]1(C)C(=O)[C@H](O)C3=C(C)[C@@H](OC(=O)[C@H](O)[C@@H](NC(=O)OC(C)(C)C)c4ccccc4)C[C@@](O)([C@@H](OC(=O)c4ccccc4)[C@H]21)C3(C)C [Docetaxel, docetaxel], which inhibition at 10 µM [8, 13] is on record?
A: 58%

Q: And the inhibition at 10 µM [8, 14]?
A: 58%

Q: And the inhibition at 10 µM [8, 15]?
A: 63%

Q: And the inhibition at 10 µM [8, 16]?
A: 55%

Q: And the inhibition at 10 µM [8, 17]?
A: 58%

Q: And the inhibition at 10 µM [9, 27]?
A: 90%

Q: And the inhibition at 10 µM [9, 28]?
A: 90%

Q: And the inhibition at 10 µM [9, 29]?
A: 91%

Q: What about the inhibition at 10 µM [9, 30] of the same compound?
A: 89%

Q: And the inhibition at 10 µM [9, 31]?
A: 90%

Q: And the inhibition at 3 µM ([1]; read-out: % Inhibition Avg)?
A: ~59%

Q: And the inhibition at 3 µM [1, 18]?
A: 67%

Q: What about the “% Inhibition, single replicates” value [1] of the same compound?
A: 53% and 58%

Q: And the inhibition at 3 µM ([2]; read-out: % Inhibition Avg)?
A: 56%

Q: What about the inhibition at 3 µM ([2]; read-out: % Inhibition n1) of the same compound?
A: 68%

Q: What about the inhibition at 3 µM ([2]; read-out: % Inhibition n2) of the same compound?
A: 52%

Q: What about the inhibition at 3 µM ([2]; read-out: % Inhibition n3) of the same compound?
A: 47%

Q: What about the inhibition at 3 µM ([4]; read-out: % Inhibition Avg) of the same compound?
A: ~48%

Q: What about the inhibition at 3 µM [4, 18] of the same compound?
A: 56%

Q: And the “% Inhibition, single replicates” value [4]?
A: 44% and 43%

Q: What about the inhibition at 3 µM [5] of the same compound?
A: ~50%

Q: And the “% Inhibition, single replicates” value [5]?
A: 30* % and 43% and 57%

Q: And the inhibition at 10 µM [10, 27]?
A: 66%

Q: And the inhibition at 10 µM [10, 28]?
A: 65%

Q: What about the inhibition at 10 µM [10, 29] of the same compound?
A: 68%

Q: And the inhibition at 10 µM [10, 30]?
A: 65%

Q: What about the inhibition at 10 µM [10, 31] of the same compound?
A: 66%

Q: And the IC50 [11]?
A: 0.367 µM

Q: And the inhibition at 3 µM [6, 19]?
A: 56%

Q: What about the inhibition at 3 µM [6, 20] of the same compound?
A: 67%

Q: And the inhibition at 3 µM [6, 21]?
A: 50%

Q: What about the inhibition at 3 µM [6, 22] of the same compound?
A: 52%

Q: And the inhibition at 3 µM [6, 23]?
A: 75%

Q: What about the inhibition at 3 µM [6, 24] of the same compound?
A: 78%

Q: And the inhibition at 3 µM [6, 25]?
A: 71%

Q: And the inhibition at 3 µM [6, 26]?
A: 76%

Q: What about the inhibition at 10 µM [12, 27] of the same compound?
A: 58%

Q: What about the inhibition at 10 µM [12, 28] of the same compound?
A: 53%

Q: And the inhibition at 10 µM [12, 29]?
A: 67%

Q: What about the inhibition at 10 µM [12, 30] of the same compound?
A: 56%

Q: And the inhibition at 10 µM [12, 31]?
A: 58%
